Tests used:
[1] = system: cultured human mast cells (CHMC); assay: CHMC low cell density IgE activation: tryptase and LTC4 assays; assay type: cell-based; conditions: read-out: CHMC anti-IgE Tryptase
Protocol: Pellet CHMC cells (980 rpm, 10 min) and resuspend in pre-warmed MT. Add 65 ul of cells to each 96-well plate. Depending on the degranulation activity for each particular CHMC donor, load 1000-1500 cells/well. Mix four times followed by a 1 hr incubation at 37° C. […] Stimulate cells by adding 25 ul of 6× anti-IgE solution to the appropriate plates. Add 25 ul MT to un-stimulated control wells. Mix twice following addition of the anti-IgE. Incubate at 37° C. for 30 minutes. […] Spin plates at 1000 rpm for 10 min to pellet cells. Transfer 25 ul of supernatant to a 96-well black bottom plate and add 100 ul of freshly diluted tryptase substrate solution to each well. Incubate plates at room temperature for 30 min.
Leukotriene C4 (LTC4) is also quantified using an ELISA kit on appropriately diluted supernatant samples (determined empirically for each donor cell population so that the sample measurement falls within the standard curve) following the supplier's instructions.

[2] = system: cultured human mast cells (CHMC); assay: CHMC low cell density ionomycin activation: tryptase assay; assay type: cell-based; conditions: Low Density CHMC, ionomycin activation, tryptase readout, read-out: CHMC Ionomycin Tryptase
[3] = Homo sapiens, Mast cell, Low Density CHMC, anti-IgE activation, tryptase readout
[4] = Low Density CHMC, anti-IgE activation, tryptase readout

In the case of `Fc1cnc(NCCc2ccccc2)nc1Nc1ccc2c(c1)OCCO2` (racemic) [Compound R908697, (±)-N4-(3,4-Ethylenedioxyphenyl)-5-fluoro-N2-(2-phenylethyl)-2,4-pyrimidinediamine], the IC50 [1, 3] is reported as > 10 µM and the IC50 ([2]; Homo sapiens, Mast cell) is reported as > 10 µM.
In the case of `CNC(=O)COc1cccc(Nc2ncc(F)c(Nc3ccc4c(c3)C(O)CCC4)n2)c1` (racemic) [Compound R926949, 5-Fluoro-N4-(1,2,3,4-tetrahydro-1-hydroxynaphthalen-7-yl)-N2-[3-[(N-methylamino)carbonylmethyleneoxy]phenyl]-2,4-pyrimidinediamine], the IC50 [1, 4] is reported as 0.089 µM and the IC50 [2] is reported as > 10 µM.
In the case of `COC(=O)C1Cc2cc(Nc3ncc(F)c(Nc4ccc(Cl)cc4)n3)ccc2O1` (racemic) [Compound R927024, (±)-N4-(4-Chlorophenyl)-N2-(2,3-dihydro-2-methoxycarbonylbenzofuran-5-yl)-5-fluoro-2,4-pyrimidinediamine], the IC50 [1, 3] is reported as 0.326 µM and the IC50 ([2]; Homo sapiens, Mast cell) is reported as 99 µM.
In the case of `COC(=O)C1Cc2cc(Nc3ncc(F)c(Nc4ccc(F)c(F)c4)n3)ccc2O1` (racemic) [Compound R927030, (±)-N4-(3,4-Difluorophenyl)-N2-(2,3-dihydro-2-methoxycarbonylbenzofuran-5-yl)-5-fluoro-2,4-pyrimidinediamine], the IC50 [1, 3] is reported as 0.26 µM and the IC50 ([2]; Homo sapiens, Mast cell) is reported as > 10 µM.
`COC(=O)C1Cc2cc(Nc3ncc(F)c(Nc4ccc(Cl)c(Cl)c4)n3)ccc2O1` (racemic) [Compound R927031, (±)-N4-(3,4-Dichlorophenyl)-N2-(2,3-dihydro-2-methoxycarbonylbenzofuran-5-yl)-5-fluoro-2,4-pyrimidinediamine] was tested, and the IC50 [1, 3] was 0.215 µM and the IC50 ([2]; Homo sapiens, Mast cell) was 99 µM.
In the case of `CCOc1ccc(Nc2ncc(F)c(Nc3ccc(OCC)cc3)n2)cc1` [Compound R070790, N2,N4-bis(4-ethoxyphenyl)-5-fluoro-2,4-pyrimidinediamine], the IC50 ([2]; Homo sapiens, Mast cell) is reported as > 10 µM.
With `CNC(=O)COc1cccc(Nc2ncc(F)c(Nc3ccc4c(c3)C(=O)CCC4)n2)c1` [Compound R926947, 5-Fluoro-N4-(1,2,3,4-tetrahydro-1-oxonaphthalen-7-yl)-N2-[3-[(N-methylamino)carbonylmethyleneoxy]phenyl]-2,4-pyrimidinediamine] the IC50 [2] was > 10 µM.
In the case of `COC(=O)c1cc2cc(Nc3ncc(F)c(Nc4ccc(OC)c(Cl)c4)n3)ccc2o1` [Compound R926950, N4-(3-Chloro-4-methoxyphenyl)-5-fluoro-N2-[2-(methoxycarbonyl)benzofuran-5-yl]-2,4-pyrimidinediamine], the IC50 ([2]; Homo sapiens, Mast cell) is reported as > 10 µM.
For `OCCOc1ccc(Nc2ncc(F)c(Nc3cccc(O)c3)n2)cc1` [Compound R935155, 5-Fluoro-N2-[4-(2-hydroxyethoxy)phenyl]-N4-(3-hydroxyphenyl)-2,4-pyrimidinediamine], the IC50 ([2]; Homo sapiens, Mast cell) was > 10 µM.
For `CNC(=O)Cn1ncc2cc(Nc3ncc(F)c(Nc4ccc(OC(C)C)cc4)n3)ccc21` [Compound R935239, 5-Fluoro-N4-(4-isopropoxyphenyl)-N2-[1-(N-methylaminocarbonyl)methyl-indazoline-5-yl]-2,4-pyrimidinediamine], the IC50 [2] was > 10 µM.
`Cc1ccc(Nc2ccnc(Nc3ccc(C)c(N)c3)n2)cc1N` [Compound R950130, N2,N4-Bis(3-amino-4-methylphenyl)-2,4-pyrimidinediamine] showed an IC50 [1, 3] of 4.9 µM.
`Nc1c(F)ccc(Nc2ccnc(Nc3ccc(F)c(N)c3F)n2)c1F` [Compound R950131, N2,N4-Bis(3-amino-2,4-difluorophenyl)-2,4-pyrimidinediamine] was tested, and the IC50 [1, 3] was > 10 µM.
`COC(=O)c1cc(N)cc(Nc2ccnc(Nc3cc(N)cc(C(=O)OC)c3)n2)c1` [Compound R950132, N2,N4-Bis(3-amino-5-methoxycarbonylphenyl)-2,4-pyrimidinediamine] showed an IC50 [1, 3] of 9 µM.
Work on `Nc1c(F)ccc(Nc2ncc(F)c(Nc3ccc(F)c(N)c3F)n2)c1F` [Compound R950138, N2,N4-Bis(3-amino-2,4-difluorophenyl)-5-fluoro-2,4-pyrimidinediamine] yielded an IC50 [1, 3] of 9.5 µM.
`CCOc1ccc(Nc2ccnc(Nc3ccc(OCC)c(N)c3)n2)cc1N` [Compound R950142, N2,N4-Bis(3-amino-4-ethoxyphenyl)-2,4-pyrimidinediamine] gave an IC50 [1, 3] of 10 µM.
`Nc1cc(Nc2ccnc(Nc3cc(N)cc(C(F)(F)F)c3)n2)cc(C(F)(F)F)c1` [Compound R950143, N2,N4-Bis(3-amino-5-trifluoromethylphenyl)-2,4-pyrimidinediamine] was tested, and the IC50 [1, 3] was 8.23 µM.
Compound `Cc1ccc(Nc2ncc(F)c(Nc3ccc(C)c([N+](=O)[O-])c3)n2)cc1[N+](=O)[O-]` [Compound R950144, N2,N4-Bis(4-methyl-3-nitrophenyl)-5-fluoro-2,4-pyrimidinediamine] has an IC50 ([1]; Homo sapiens, Mast cell) of 10 µM.
`Cc1ccc([N+](=O)[O-])cc1Nc1ncc(F)c(Nc2cc([N+](=O)[O-])ccc2C)n1` [Compound R950146, N2,N4-Bis(2-methyl-5-nitrophenyl)-5-fluoro-2,4-pyrimidinediamine] was tested, and the IC50 ([1]; Homo sapiens, Mast cell) was > 10 µM.
`O=[N+]([O-])c1ccc(F)c(Nc2ncc(F)c(Nc3cc([N+](=O)[O-])ccc3F)n2)c1` [Compound R950147, N2,N4-Bis(2-fluoro-5-nitrophenyl)-5-fluoro-2,4-pyrimidinediamine] was tested, and the IC50 ([1]; Homo sapiens, Mast cell) was > 10 µM.
`COc1ccc([N+](=O)[O-])cc1Nc1ncc(F)c(Nc2cc([N+](=O)[O-])ccc2OC)n1` [Compound R950151, N2,N4-Bis(2-methoxy-5-nitrophenyl)-5-fluoro-2,4-pyrimidinediamine] was tested, and the IC50 ([1]; Homo sapiens, Mast cell) was > 10 µM.
`O=[N+]([O-])c1cc(Nc2ccnc(Nc3ccc(F)c([N+](=O)[O-])c3)n2)ccc1F` [Compound R950152, N2,N4-Bis(4-fluoro-3-nitrophenyl)-2,4-pyrimidinediamine] gave an IC50 ([1]; Homo sapiens, Mast cell) of 10 µM.
With `Cc1ccc(Nc2ccnc(Nc3ccc(C)c([N+](=O)[O-])c3)n2)cc1[N+](=O)[O-]` [Compound R950153, N2,N4-Bis(4-methyl-3-nitrophenyl)-2,4-pyrimidinediamine] the IC50 ([1]; Homo sapiens, Mast cell) was > 10 µM.
In the case of `O=[N+]([O-])c1ccc(O)c(Nc2ccnc(Nc3cc([N+](=O)[O-])ccc3O)n2)c1` [Compound R950155, N2,N4-Bis(2-hydroxy-5-nitrophenyl)-2,4-pyrimidinediamine], the IC50 ([1]; Homo sapiens, Mast cell) is reported as > 10 µM.
With `Cc1ccc(N)cc1Nc1ncc(F)c(Nc2cc(N)ccc2C)n1` [Compound R950157, N2,N4-Bis(5-amino-2-methylphenyl)-5-fluoro-2,4-pyrimidinediamine] the IC50 [1, 3] was > 10 µM.
`Nc1ccc(F)c(Nc2ncc(F)c(Nc3cc(N)ccc3F)n2)c1` [Compound R950158, N2,N4-Bis(5-amino-2-fluorophenyl)-5-fluoro-2,4-pyrimidinediamine] was tested, and the IC50 [1, 3] was 9.98 µM.
Compound `CCOC(=O)CNc1cccc(Nc2ncc(F)c(Nc3cccc(O)c3)n2)c1` [Compound R950216] has an IC50 [1, 4] of 0.327 µM.
`CNC(=O)CNc1cccc(Nc2ncc(F)c(Nc3cccc(O)c3)n2)c1` [Compound R950218] was tested, and the IC50 [2] was > 10 µM.
`CC(=O)c1cccc(Nc2ncc(F)c(Nc3cccc(C(C)=O)c3)n2)c1` [Compound R950376, N2,N4-Bis(3-methylcarbonylphenyl)-5-fluoro-2,4-pyrimidinediamine] gave an IC50 [1, 3] of 2.54 µM.
With `COC(=O)c1cc(Nc2ncc(F)c(Nc3ccc(OC(F)(F)F)c(C(=O)OC)c3)n2)ccc1OC(F)(F)F` [Compound R950391, N2,N4-Bis(3-methoxycarbonyl-4-trifluoromethoxyphenyl)-5-fluoro-2,4-pyrimidinediamine] the IC50 ([2]; Homo sapiens, Mast cell) was > 10 µM.
